Measured values taken from patent US9676754B2, “Triazolone compounds and uses thereof” (Inception 2, Inc., priority 2012, dated 2017).

Each molecule was assayed against T1, Human PPARα (Homo sapiens, UniProt Q07869) (assay: Human PPARα Reporter Assay (luciferase)). Conditions: antagonist activity, luciferase reporter cells, overnight incubation; read-out: Human PPARα Reporter Assay-Luciferase IC50.
T1 construct: host or cells: proprietary non-human mammalian cells
T1 sequence (Q07869 1-468): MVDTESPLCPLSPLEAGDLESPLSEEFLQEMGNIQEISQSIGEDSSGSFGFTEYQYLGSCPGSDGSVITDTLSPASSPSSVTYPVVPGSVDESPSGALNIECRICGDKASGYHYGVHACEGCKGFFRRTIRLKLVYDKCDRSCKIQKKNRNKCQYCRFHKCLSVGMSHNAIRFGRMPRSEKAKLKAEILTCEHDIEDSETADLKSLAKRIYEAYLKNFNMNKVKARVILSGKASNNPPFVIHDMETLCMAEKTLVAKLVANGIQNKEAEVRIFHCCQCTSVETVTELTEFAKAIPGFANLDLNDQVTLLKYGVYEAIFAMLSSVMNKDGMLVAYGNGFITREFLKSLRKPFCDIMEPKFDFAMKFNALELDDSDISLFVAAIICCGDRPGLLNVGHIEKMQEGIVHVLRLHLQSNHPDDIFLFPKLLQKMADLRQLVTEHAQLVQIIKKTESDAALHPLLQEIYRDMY
Assay type: cell-based
Protocol: Human PPARα Reporter Assay
The screening of test compounds for agonist or antagonist activities against human PPARα receptors was performed using a commercial kit, Human PPARα Reporter Assay System (Indigo Biosciences, Cat. #IB00111).
This nuclear receptor assay system utilizes proprietary non-human mammalian cells engineered to provide constitutive, high-level expression of Human PPARα. Because these cells incorporate a PPARα-responsive luciferase reporter gene, quantifying expressed luciferase activity provides a sensitive surrogate measure of PPARα activity in the treated cells. The primary application of this reporter assay system is in the screening of test samples to quantify any functional activity, either agonist or antagonist, that they may exert against human PPARα. […] Briefly, the reporter cells are dispensed into wells of the assay plate and then immediately dosed with test compounds. Following an overnight incubation, the treatment media are discarded and Luciferase Detection Reagent (LDR) is added. The intensity of light emission from the ensuing luciferase reaction provides a sensitive measure that is directly proportional to the relative level of PPARα activation in the reporter cells.

| SMILES | IC50 [µM] |
| --- | --- |
| CCn1c(CCCc2cccc(-c3ccc(OC)c(CC(=O)O)c3)n2)nn(Cc2ccc(C(C)(C)C)cc2)c1=O [Example 24, 2-(5-(6-(3-(1-(4-(tert-Butyl)benzyl)-4-ethyl-5-oxo-4,5-dihydro-1H-1,2,4-triazol-3-yl)propyl)pyridin-2-yl)-2-methoxyphenyl)acetic acid] | 2.53 |
| CCOc1ccc(-c2nccc(CCCc3nn(Cc4ccc(C(C)(C)C)cc4)c(=O)n3CC)n2)cc1CC(=O)O [Example 26, 2-(5-(4-(3-(1-(4-(tert-Butyl)benzyl)-4-ethyl-5-oxo-4,5-dihydro-1H-1,2,4-triazol-3-yl)propyl)pyrimidin-2-yl)-2-ethoxyphenyl)acetic acid] | 1.24 |
| CCn1c(CCCc2cccc(-c3ccc(CC(=O)O)c(OC)c3)c2)nn(Cc2ccc(C(C)(C)C)cc2)c1=O [Example 28, (3′-(3-(1-(4-(tert-Butyl)benzyl)-4-ethyl-5-oxo-4,5-dihydro-1H-1,2,4-triazol-3-yl)propyl)-3-methoxy-[1,1′-biphenyl]-4-yl)acetic acid] | 0.14 |
| CCOc1cc(-c2cccc(CCCc3nn(Cc4ccc(C(C)(C)C)cc4)c(=O)n3CC)c2)ccc1CC(=O)O [Example 29, (3′-(3-(1-(4-(tert-Butyl)benzyl)-4-ethyl-5-oxo-4,5-dihydro-1H-1,2,4-triazol-3-yl)propyl)-3-ethoxy-[1,1′-biphenyl]-4-yl)acetic acid] | 0.059 |

Further molecules by falling IC50, results first:

| IC50 [µM] | SMILES |
| --- | --- |
| 3.43 | CCOc1ccc(-c2cc(CCCc3nn(Cc4ccc(C(C)(C)C)cc4)c(=O)n3CC)ncn2)cc1CC(=O)O [Example 27, 2-(5-(6-(3-(1-(4-(tert-Butyl)benzyl)-4-ethyl-5-oxo-4,5-dihydro-1H-1,2,4-triazol-3-yl)propyl)pyrimidin-4-yl)-2-ethoxyphenyl)acetic acid] |
| 2.29 | CCn1c(CCCc2cccc(-c3cccc(-c4nnn[nH]4)c3)c2)nn(Cc2ccc(C(C)(C)C)cc2)c1=O [Example 25, 3-(3-(3′-(1H-Tetrazol-5-yl)-[1,1′-biphenyl]-3-yl)propyl)-1-(4-(tert-butyl)benzyl)-4-ethyl-1H-1,2,4-triazol-5(4H)-one] |
| 0.659 | CCn1c(CCC(F)(F)c2cccc(-c3ccc(NS(=O)(=O)c4ccccc4)cn3)c2)nn(Cc2ccc(C(C)(C)C)cc2)c1=O [Example 23, N-(6-(3-(3-(1-(4-(tert-Butyl)benzyl)-4-ethyl-5-oxo-4,5-dihydro-1H-1,2,4-triazol-3-yl)-1,1-difluoropropyl)phenyl)pyridin-3-yl)benzenesulfonamide] |
| 0.036 | CCCOc1cc(-c2cccc(CCCc3nn(Cc4ccc(C(C)(C)C)cc4)c(=O)n3CC)c2)ccc1CC(=O)O [Example 30, (3′-(3-(1-(4-(tert-Butyl)benzyl)-4-ethyl-5-oxo-4,5-dihydro-1H-1,2,4-triazol-3-yl)propyl)-3-propoxy-[1,1′-biphenyl]-4-yl)acetic acid] |
